Reference: patent US10221138B2, “Biaryl derivatives as GPR120 agonists” (LG CHEM, LTD., priority 2013, dated 2019)

The compounds below were run against T1, hGPR120 (Homo sapiens, UniProt Q5NUL3) (assay: Measurement of activity of GPR120 agonist (cell-based calcium fluorescence assay)). Settings: not given.
T1 construct: expressed in transfected cells; host or cells: CHO-K1
T1 sequence (Q5NUL3 1-361): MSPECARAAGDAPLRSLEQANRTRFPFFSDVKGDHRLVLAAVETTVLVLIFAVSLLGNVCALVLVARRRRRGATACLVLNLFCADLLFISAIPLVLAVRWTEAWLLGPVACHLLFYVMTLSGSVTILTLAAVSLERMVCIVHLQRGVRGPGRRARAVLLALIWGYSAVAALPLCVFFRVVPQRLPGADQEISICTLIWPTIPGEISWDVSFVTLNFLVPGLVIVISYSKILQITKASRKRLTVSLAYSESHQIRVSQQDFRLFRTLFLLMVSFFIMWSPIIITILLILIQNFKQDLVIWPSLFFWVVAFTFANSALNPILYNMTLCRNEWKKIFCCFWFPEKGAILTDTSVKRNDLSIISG
Method: CHO-K1 cells expressing Ga16 and hGPR120 were dispensed into each well of a 96-well plate (3×10^4 cells/100 μl/well) and then incubated in 5% CO2, 37° C. incubator for 18 hours. Each well was treated with 100 μl of Calcium 5 dye (Molecular Devices) solution including 2% DMSO and then incubated in 5% CO2, 37° C. incubator for 1 hour. Serially diluted GPR120 agonists were prepared to a final concentration of 0.5% DMSO in a 96-well plate.
Fluorescence increased by the serially diluted GPR120 agonists is calculated as a relative percent (%) value based on the fluorescence represented by the treatment of 1% DMSO only. […] The calculation of measurement was carried out by using statistical software (Prizm).
Activity is denoted based on the following criteria: […]

Which EC50 does the source give for CC(C)Nc1ccccc1-c1cc(F)c(OCCCC(=O)O)c(F)c1 [Example 83, 4-[2,6-difluoro-4-[2-(isopropylamino)phenyl]phenoxy]butanoic Acid] here?
The EC50 was 200 to 2000 nM.

Same assay, conditions: CHO-K1 cells expressing Ga16 and hGPR120, Calcium 5 dye fluorescence; activity class; read-out: EC50

Which EC50 does the source give for O=C(O)CCCOc1c(F)cc(-c2cccnc2OCC2CCCC2)cc1F [Example 229, 4-[4-(2-cyclopentylmethoxy-pyridin-3-yl)-2,6-difluoro-phenoxy]-butyric acid] here?
The EC50 was < 200 nM.

How did the EC50 turn out when O=C(O)CCCOc1cc(F)c(-c2cccc(SC3CCC3)n2)cc1F [Example 62, 4-[4-(6-cyclobutylsulfanyl-pyridin-2-yl)-2,5-difluoro-phenoxy]-butyric acid] was run?
Its EC50 is 200 to 2000 nM.

Which EC50 does the source give for CC(C)Oc1ncccc1-c1cc(F)c(OCCCCC(=O)O)c(F)c1 [Example 213, 5-[2,6-difluoro-4-(2-isopropoxy-pyridin-3-yl)-phenoxy]-pentanoic acid] here?
Its EC50 is < 200 nM.

How did the EC50 turn out when CC(C)Oc1ccccc1-c1cc(F)c(OCCCC(=O)O)c(F)c1 [Example 52, 4-(3,5-difluoro-2′-isopropoxy-biphenyl-4-yloxy)-butyric acid] was run?
The EC50 was 200 to 2000 nM.

For CC(C)Cc1ncccc1-c1cc(F)c(OCCCC(=O)O)c(F)c1 [Example 106, 4-[2,6-difluoro-4-(2-isobutyl-3-pyridyl)phenoxy]butanoic acid], which EC50 is on record?
Its EC50 is 2000 to 20000 nM.

How did the EC50 turn out when COc1ncccc1-c1cc(F)c(OCCCC(=O)O)c(F)c1 [Example 268, 4-[2,6-difluoro-4-(2-methoxy-pyridin-3-yl)-phenoxy]-butyric acid] was run?
The EC50 was 200 to 2000 nM.

With Cc1cnc(OC2CCCC2)c(-c2ccc(SCCCC(=O)O)c(F)c2)c1 [Example 186, 4-[4-(2-cyclopentyloxy-5-methyl-pyridin-3-yl)-2-fluoro-phenylsulfanyl]-butyric acid] as the compound, how does the EC50 read?
The EC50 was < 200 nM.

How did the EC50 turn out when O=C(O)CCCOc1c(F)cc(-c2ccccc2Oc2ccccc2)cc1F [Example 39, 4-(3,5-difluoro-2′-phenoxy-biphenyl-4-yloxy)-butyric acid] was run?
Its EC50 is < 200 nM.

Which EC50 does the source give for C[C@H](CCC(=O)O)Oc1c(F)cc(-c2cccc(OC3CCC3)c2)cc1F [Example 116, (4R)-4-[4-[3-(cyclobutoxy)phenyl]-2,6-difluoro-phenoxy]pentanoic acid] here?
The EC50 was < 200 nM.

O=C(O)CCCCOc1c(F)cc(-c2cccnc2OC2CCOC2)cc1F (stereo not drawn) [Example 240, 5-[2,6-difluoro-4-(2-tetrahydrofuran-3-yloxy-3-pyridyl)phenoxy]pentanoic acid] was tested. Which EC50 did it give?
Its EC50 is 200 to 2000 nM.

CC(C)Sc1cccc(-c2cc(F)c(OCCCCC(=O)O)c(F)c2)n1 [Example 237, 5-[2,6-difluoro-4-(6-isopropylsulfanyl-2-pyridyl)phenoxy]pentanoic acid] was tested. Which EC50 did it give?
The EC50 was < 200 nM.

How did the EC50 turn out when O=C(O)CCCOc1ccc(-c2cccc(OC3CCC3)c2)nc1 [Example 35, 4-[[6-[3-(cyclobutoxy)phenyl]-3-pyridyl]oxy]butyric acid] was run?
The EC50 was 200 to 2000 nM.

CCC(C)Sc1ncccc1-c1cc(F)c(OCCCC(=O)O)c(F)c1 (stereo not drawn) [Example 13, 4-[4-(2-sec-butylsulfanyl-pyridin-3-yl)-2,6-difluoro-phenoxy]-butyric acid] was tested. Which EC50 did it give?
Its EC50 is 200 to 2000 nM.

CC(C)CCSc1ncccc1-c1cc(F)c(OCCCC(=O)O)c(F)c1 [Example 31, 4-{2,6-difluoro-4-[2-(3-methyl-butylsulfanyl)-pyridin-3-yl]-phenoxy}-butyric acid] was tested. Which EC50 did it give?
The EC50 was 200 to 2000 nM.

O=C(O)CCCSc1ccc(-c2cc(F)ccc2NC2CCCC2)cc1F [Example 175, 4-(2′-cyclopentylamino-3,5′-difluoro-biphenyl-4-ylsulfanyl)-butyric acid] was tested. Which EC50 did it give?
Its EC50 is < 200 nM.

How did the EC50 turn out when COc1cc(-c2cccnc2SC2CCC2)ccc1OCCCC(=O)O [Example 7, 4-[4-(2-cyclobutylsulfanyl-pyridin-3-yl)-2-methoxy-phenoxy]-butyric acid] was run?
Its EC50 is 2000 to 20000 nM.

O=C(O)CCCSc1ccc(-c2cccnc2OC2CCC2)cc1F [Example 172, 4-[4-(2-cyclobutoxy-pyridin-3-yl)-2-fluoro-phenylsulfanyl]-butyric acid] was tested. Which EC50 did it give?
The EC50 was < 200 nM.

Which EC50 does the source give for O=C(O)CCCCOc1c(F)cc(-c2cccnc2OC2CCCC2)cc1F [Example 232, 5-[4-(2-cyclopentyloxy-pyridin-3-yl)-2,6-difluoro-phenoxy]-pentanoic acid] here?
The EC50 was < 200 nM.

How did the EC50 turn out when O=C(O)CCCOc1c(F)cc(-c2cccc(SC3CCCC3)n2)cc1F [Example 6, 4-[4-(6-cyclopentylsulfanyl-2-pyridyl)-2,6-difluoro-phenoxy]butyric acid] was run?
Its EC50 is < 200 nM.

How did the EC50 turn out when CC(C)Nc1cccc(-c2cc(F)c(OCCCC(=O)O)c(F)c2)n1 [Example 78, 4-[2,6-difluoro-4-[6-(isopropylamino)-2-pyridyl]phenoxy]butanoic acid] was run?
The EC50 was 200 to 2000 nM.

O=C(O)CCCOc1c(F)cc(-c2cccnc2NC2CCCC2)cc1F [Example 73, 4-[4-[2-(cyclopentylamino)-3-pyridyl]-2,6-difluoro-phenoxy]butanoic acid] was tested. Which EC50 did it give?
The EC50 was 200 to 2000 nM.

Cc1ccc(-c2ccc(SCCCC(=O)O)c(F)c2)c(OC2CCCC2)n1 [Example 189, 4-[4-(2-cyclopentyloxy-6-methyl-pyridin-3-yl)-2-fluoro-phenylsulfanyl]-butyric acid] was tested. Which EC50 did it give?
The EC50 was 200 to 2000 nM.

COc1ccc(-c2cc(F)c(SCCCC(=O)O)c(F)c2)c(OC2CCCC2)c1 [Example 184, 4-(2′-cyclopentyloxy-3,5-difluoro-4′-methoxy-biphenyl-4-ylsulfanyl)-butyric acid] was tested. Which EC50 did it give?
The EC50 was 200 to 2000 nM.

C[C@@H](CCC(=O)O)Oc1c(F)cc(-c2cccnc2SC2CCC2)cc1F [Example 114, (4S)-4-[4-(2-cyclobutylsulfanyl-3-pyridyl)-2,6-difluoro-phenoxy]pentanoic acid] was tested. Which EC50 did it give?
The EC50 was < 200 nM.

For CC(C)Nc1ncccc1-c1ccc(SCCCC(=O)O)c(F)c1 [Example 174, 4-[2-fluoro-4-(2-isopropylamino-pyridin-3-yl)-phenylsulfanyl]-bytyric acid], which EC50 is on record?
The EC50 was 200 to 2000 nM.

O=C(O)CCCOc1c(F)cc(-c2cccnc2NCC2CCOCC2)cc1F [Example 112, 4-[2,6-difluoro-4-[2-(tetrahydropyran-4-ylmethylamino)-3-pyridyl]phenoxy]butanoic acid] was tested. Which EC50 did it give?
The EC50 was > 20000 nM.

For CCCSc1ncccc1-c1cc(F)c(SCCCCC(=O)O)c(F)c1 [Example 257, 5-[2,6-difluoro-4-(2-propylsulfanyl-pyridin-3-yl)-phenylsulfanyl]-pentanoic acid], which EC50 is on record?
Its EC50 is < 200 nM.

With CCCSc1ncccc1-c1cc(F)c(OCCCCC(=O)O)c(F)c1 [Example 236, 5-[2,6-difluoro-4-(2-propylsulfanyl-3-pyridyl)phenoxy]pentanoic acid] as the compound, how does the EC50 read?
Its EC50 is < 200 nM.

How did the EC50 turn out when Cc1cnc(OC2CCCC2)c(-c2cc(F)c(OCCCC(=O)O)c(F)c2)c1 [Example 209, 4-[4-(2-cyclopentyloxy-5-methyl-pyridin-3-yl)-2,6-difluoro-phenoxy]-butyric acid] was run?
The EC50 was < 200 nM.

Which EC50 does the source give for O=C(O)CCCOc1ccc(-c2cccnc2SC2CCC2)cc1 [Example 48, 4-[4-(2-cyclobutylsulfanyl-pyridin-3-yl)-phenoxy]-butyric acid] here?
The EC50 was < 200 nM.

Which EC50 does the source give for O=C(O)CCCSc1c(F)cc(-c2ccccc2NC2CCCC2)cc1F [Example 161, 4-(2′-cyclopentylamino-3,5-difluoro-biphenyl-4-ylsulfanyl)-butyric acid] here?
Its EC50 is < 200 nM.

Which EC50 does the source give for CC(C)Sc1cccc(-c2ccc(OCCCC(=O)O)c(Cl)c2)n1 [Example 4, 4-[2-chloro-4-(6-isopropylsulfanyl-2-pyridyl)phenoxy]butyric acid] here?
Its EC50 is 200 to 2000 nM.

With CC(C)Sc1cc(-c2cc(F)c(OCCCC(=O)O)c(F)c2)ccn1 [Example 8, 4-[2,6-difluoro-4-(2-isopropylsulfanyl-4-pyridyl)phenoxy]butyric acid] as the compound, how does the EC50 read?
Its EC50 is > 20000 nM.

How did the EC50 turn out when CCCNc1ccccc1-c1ccc(OCCCC(=O)O)cc1 [Example 86, 4-[4-[2-(propylamino)phenyl]phenoxy]butanoic acid] was run?
The EC50 was 200 to 2000 nM.

O=C(O)CCCCCCOc1c(F)cc(-c2cccnc2OC2CCCC2)cc1F [Example 263, 7-[4-(2-cyclopentyloxy-pyridin-3-yl)-2,6-difluoro-phenoxy]-heptanoic acid] was tested. Which EC50 did it give?
Its EC50 is 2000 to 20000 nM.

For O=C(O)CCCOc1c(F)cc(-c2cccnc2OCc2ccco2)cc1F [Example 220, 4-[2,6-difluoro-4-[2-(2-furylmethoxy)-3-pyridyl]phenoxy]butanoic acid], which EC50 is on record?
The EC50 was 200 to 2000 nM.

Which EC50 does the source give for O=C(O)CCCOc1ccc(-c2cccc(OC3CCCC3)c2)nc1 [Example 36, 4-[[6-[3-(cyclopentoxy)phenyl]-3-pyridyl]oxy]butyric acid] here?
Its EC50 is 200 to 2000 nM.

O=C(O)CCCCOc1c(F)cc(-c2cccnc2OCC2CC2)cc1F [Example 239, 5-[4-[2-(cyclopropylmethoxy)-3-pyridyl]-2,6-difluoro-phenoxy]pentanoic acid] was tested. Which EC50 did it give?
The EC50 was < 200 nM.

How did the EC50 turn out when CCCSc1cccc(-c2cc(F)c(OCCCC(=O)O)c(F)c2)n1 [Example 21, 4-[2,6-difluoro-4-(6-propylsulfanyl-2-pyridyl)phenoxy]butyric acid] was run?
The EC50 was < 200 nM.

O=C(O)CCCOc1c(F)cc(-c2cccnc2NC2CC2)cc1F [Example 77, 4-[4-[2-(cyclopropylamino)-3-pyridyl]-2,6-difluoro-phenoxy]butanoic acid] was tested. Which EC50 did it give?
The EC50 was > 20000 nM.

CC(C)Sc1cccc(-c2cc(F)c(OCCCC(=O)O)c(F)c2)n1 [Example 2, 4-[2,6-difluoro-4-(6-isopropylsulfanyl-2-pyridyl)phenoxy]butyric acid] was tested. Which EC50 did it give?
The EC50 was < 200 nM.
